From PubChem BioAssay (NCI)
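48-hour exposure; five concentrations; linearly interpolated endpoints. GI50 is the concentration that inhibits growth by half. TGI marks complete inhibition of growth.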

Key:
Test in all cases: DTP human tumour cell line panel, 48 h
OVCAR-3 ovarian = system: OVCAR-3 ovarian
M14 melanoma = system: M14 melanoma
NCI-H23 lung = system: NCI-H23 lung
OVCAR-5 ovarian = system: OVCAR-5 ovarian
BT-549 breast = system: BT-549 breast
A498 renal = system: A498 renal
COLO 205 colon = system: COLO 205 colon
SNB-75 CNS = system: SNB-75 CNS
K-562 leukemia = system: K-562 leukemia
CCRF-CEM leukemia = system: CCRF-CEM leukemia

Structure (SMILES)	GI50 (OVCAR-3 ovarian)	TGI (OVCAR-3 ovarian)	GI50 (M14 melanoma)	TGI (M14 melanoma)	GI50 (NCI-H23 lung)	TGI (NCI-H23 lung)	GI50 (OVCAR-5 ovarian)	TGI (OVCAR-5 ovarian)	GI50 (BT-549 breast)	TGI (BT-549 breast)	GI50 (A498 renal)	TGI (A498 renal)	GI50 (COLO 205 colon)	TGI (COLO 205 colon)	GI50 (SNB-75 CNS)	TGI (SNB-75 CNS)	GI50 (K-562 leukemia)	TGI (K-562 leukemia)	GI50 (CCRF-CEM leukemia)	TGI (CCRF-CEM leukemia)
COc1cc2cc(Oc3ccc(NC(=O)Nc4cccc(C(F)(F)F)c4)cc3)c(C)nc2cc1OC	2.04 µM	8.07 µM	1.67 µM	7.67 µM	1.7 µM	7.41 µM	3.02 µM	13 µM	1.43 µM	6.18 µM	1.29 µM	4.95 µM	1.12 µM	2.4 µM	1.17 µM	6.18 µM	1.73 µM	14 µM		
NC(N)=N/N=C\c1cccc(OCc2ccccc2)c1	6.51 µM	23 µM			11.7 µM	27.6 µM	11.5 µM	33.7 µM	15 µM	28.4 µM	11.4 µM	23.5 µM	1.78 µM	3.36 µM	7.03 µM	23.4 µM	3.87 µM	16.1 µM	9.53 µM	33.7 µM
CCn1c(CN2CCN(Cc3ccccc3)CC2)nc2cc(NC(=O)c3cccs3)ccc21	20.6 µM	> 100 µM	16.9 µM	33.4 µM	19.9 µM	57 µM	17 µM	63.3 µM	13.4 µM	28.9 µM	6.05 µM	29.6 µM	13.5 µM	29.3 µM	12.4 µM	30.6 µM	15.1 µM	87.9 µM		
O=NNc1ccc(S(=O)(=O)c2ccccc2)cn1		> 100 µM		> 100 µM		> 100 µM		> 100 µM		> 100 µM		> 100 µM		> 100 µM		> 100 µM		> 100 µM		> 100 µM
N[C@@H]1CCCC[C@H]1N.O=C([O-])C(=O)[O-].[Pt+4]	5.71 µM	25.9 µM	7.22 µM	45.1 µM	1.76 µM	15.2 µM	0.671 µM	21.2 µM	12.3 µM	> 100 µM	4.85 µM	32.7 µM	7.73 µM	> 74.8 µM	18.5 µM	> 100 µM	0.854 µM	> 95.3 µM	0.35 µM	> 100 µM
O=C(CN1CCN(CCCOc2c(-c3ccccc3)oc3ccccc3c2=O)CC1)Nc1ccc(Cl)cc1C(=O)c1ccccc1Cl	5.79 µM	19.5 µM	2.01 µM	4.51 µM	12.4 µM	41.9 µM	27.2 µM	90.8 µM	14.1 µM	40.5 µM	21.5 µM	81.8 µM	13.4 µM	30.2 µM	4.39 µM	47.1 µM	4.18 µM	> 100 µM	0.635 µM	12 µM
Nc1ncnc2c1nc(Cl)n2C1OC2COP(=O)(O)OC2C1O (centres undefined)		> 300 µM		> 300 µM		> 300 µM		> 283 µM		> 300 µM		> 300 µM		> 300 µM		> 213 µM		> 300 µM		> 300 µM
